Data: patent US8716326B2, “Isoindolinone derivatives, preparation method thereof and a pharmaceutical composition comprising same” (Korea Research Institute of Chemical Technology, priority 2009, dated 2014)

System: Runx2
Assay: Runx2 activity, 6xOSE2-Luc luciferase reporter in transfected C2C12 cells
Assay type: cell-based, Mouse
Conditions: Mus musculus, 24 hrs, read-out: luciferase activity relative to control set as 1
Method: Mouse premyoblast cell (C2C12 cell) was transfected using receptor vector 6xOSE2-Luc in order to investigate the activity of the amide compound of the present invention on Runx2.
Specifically, the receptor vector 6xOSE2-Luc was prepared by inserting an artificial promoter linked by six tandem copies of the OSE2 (osteoblast specific element-2) into vector pGL3 (Promega; Madison, Wis., U.S.A.), and then, cloned into the C2C12 cell to be transfected (Kim et al., Journal of Cellular Biochemistry, 91: 1239-1247, 2004). The OSE2 is the binding site of Runx2 in the promoter of osteocalcin which is a bone marker.
C2C12 cells (5,000 cells/well) were plated onto 96-well plates using 10% FBS (fetal bovine serum; Hyclone)-containing DMEM (Dulbecco's Modified Eagle's Medium), the medium was replaced with 5% FBS-containing DMEM after 24 hrs, and treated with each of the amide compounds obtained in Examples 1 to 94 at various concentrations of 2.5 μM, 5.0 μM, 10 μM, and 20 μM. As a control, dimethyl sulfoxide (DMSO) vehicle was applied to the cell in an amount same as that of the amide compound. After 24 hrs, the luciferase activity in the cell lysate was measured by using Dual-Luciferase Reporter Assay System (Promega). The luciferase activity of the amide compound of the present invention was calculated as a value relative to that observed for the control which was set as 1.

| SMILES | fold induction at 2.5 µM | fold induction at 5 µM | fold induction at 10 µM | fold induction at 20 µM |
| --- | --- | --- | --- | --- |
| COc1ccc(-c2cccc3c2CN(Cc2ccc(C(=O)Nc4ccccc4N)cc2)C3=O)cc1OC [Example 16, N-(2-aminophenyl)-4-((4-(3,4-dimethoxyphenyl)-1-oxoisoindolin-2-yl)methyl)benzamide] | 12.2 | 12.3 | 8.5 | 9.2 |
| COc1ccc(-c2ccc3c(c2)CN(CCCCCC(=O)NO)C3=O)cc1OC [Example 51, N-hydroxy-6-(5-(3,4-dimethoxyphenyl)-1-oxoisoindolin-2-yl)hexanamide] | 1.2 | 2.1 | 10.4 | 26.4 |
| Cc1cc(C)cc(-c2cccc3c2CN(CCCCCC(=O)NO)C3=O)c1 [Example 41, N-hydroxy-6-(4-(3,5-dimethylphenyl)-1-oxoisoindolin-2-yl)hexanamide] | 2.5 | 4.6 | 12.4 | 28 |
| Nc1ccccc1NC(=O)CCCCCN1Cc2c(Br)cccc2C1=O [Example 36, N-(2-aminophenyl)-6-(4-bromo-1-oxoisoindolin-2-yl)hexanamide] | 2.1 | 3 | 8 | 13 |
| Cc1cc(C)cc(-c2ccc3c(c2)CN(Cc2ccc(C(=O)Nc4ccccc4N)cc2)C3=O)c1 [Example 62, N-(2-aminophenyl)-4-((5-(3,5-dimethylphenyl)-1-oxoisoindolin-2-yl)methyl)benzamide] | 4.6 | 5.8 | 5.5 | 6.6 |
| Cc1cc(C(=O)NCCCCCC(=O)Nc2ccccc2N)ccc1-c1cncnc1 [Example 90, N-(5-(2-aminophenylcarbamoyl)pentyl)-3-methyl-4-(5-pyrimidinyl)-benzamide] | 1.7 | 3.7 | 9.5 | 22.1 |
| COc1cc(C(=O)NCc2ccc(C(=O)Nc3ccccc3N)cc2)c(C)c(-c2ccccc2)c1OC [Example 74, N-(2-aminophenyl)-4-((2-methyl-3-phenyl-4,5-dimethoxy-benzamido)methyl)benzamide] | 25.1 | 31.1 | 38.5 | 38.9 |
| COc1ccc(-c2c3c(cc(OC)c2OC)C(=O)N(Cc2ccc(C(=O)Nc4ccccc4N)cc2)C3)cc1OC [Example 7, N-(2-aminophenyl)-4-((5,6-dimethoxy-4-(3,4-dimethoxyphenyl)-1-oxoisoindolin-2-yl)methyl)benzamide] | 24.6 | 26.9 | 24.3 | 18.4 |
| Cc1c(C(=O)NCc2ccc(C(=O)Nc3ccccc3N)cc2)cccc1-c1cncnc1 [Example 70, N-(2-aminophenyl)-4-((2-methyl-3-(5-pyrimidinyl)benzamido)methyl)benzamide] | 8.9 | 20.6 | 30.1 | 40.2 |
| COc1cc2c(c(-c3ccccc3)c1OC)CN(CCCCCC(=O)Nc1ccccc1N)C2=O [Example 31, N-(2-aminophenyl)-6-(5,6-dimethoxy-1-oxo-4-phenylisoindolin-2-yl)hexanamide] | 12.2 | 21.2 | 26.2 | 29.3 |
| Nc1ccccc1NC(=O)c1ccc(CN2Cc3c(cccc3-c3ccc(C(F)(F)F)cc3)C2=O)cc1 [Example 13, N-(2-aminophenyl)-4-((4-(4-(trifluoromethyl)phenyl)-1-oxoisoindolin-2-yl)methyl)benzamide] | 7.9 | 8 | 9.3 | 7.2 |
| O=C(CCCCCN1Cc2cc(-c3cccnc3)ccc2C1=O)NO [Example 54, N-hydroxy-6-(1-oxo-5-(pyridin-3-yl)isoindolin-2-yl)hexanamide] | 1.5 | 2.9 | 8.9 | 19.8 |
| COc1ccc(-c2cccc(C(=O)NCCCCCC(=O)NO)c2C)c(OC)c1 [Example 93, N-(5-(hydroxycarbamoyl)pentyl)-2-methyl-3-(2,4-dimethoxyphenyl)-benzamide] | 1.3 | 1.9 | 4.8 | 11.2 |
| COc1cc2c(c(-c3cccnc3)c1OC)CN(CCCCCC(=O)Nc1ccccc1N)C2=O [Example 33, N-(2-aminophenyl)-6-(5,6-dimethoxy-1-oxo-4-(pyridin-3-yl)isoindolin-2-yl)hexanamide] | 1.8 | 3.4 | 10 | 29 |
| Nc1ccccc1NC(=O)c1ccc(CN2Cc3c(cccc3-c3ccccc3)C2=O)cc1 [Example 11, N-(2-aminophenyl)-4-((1-oxo-4-phenylisoindolin-2-yl)methyl)benzamide] | 8.3 | 12.3 | 15.6 | 16.8 |
| Cc1cc(C(=O)NCCCCCC(=O)Nc2ccccc2N)ccc1-c1ccncc1 [Example 89, N-(5-(2-aminophenylcarbamoyl)pentyl)-3-methyl-4-(4-pyridinyl)-benzamide] | 9.6 | 17.9 | 23.7 | 25.3 |
| Nc1cccc(-c2cccc3c2CN(Cc2ccc(C(=O)Nc4ccccc4N)cc2)C3=O)c1 [Example 18, N-(2-aminophenyl)-4-((4-(3-aminophenyl)-1-oxoisoindolin-2-yl)methyl)benzamide] | 15.3 | 16.2 | 20.2 | 18.5 |
| Cc1c(C(=O)NCCCCCC(=O)Nc2ccccc2N)cccc1-c1ccccc1 [Example 81, N-(5-(2-aminophenylcarbamoyl)pentyl)-2-methyl-3-phenyl-benzamide] | 1.6 | 3.4 | 7.5 | 10.7 |
| COc1ccc(-c2cccc3c2CN(Cc2ccc(C(=O)Nc4ccccc4N)cc2)C3=O)cc1F [Example 24, N-(2-aminophenyl)-4-((4-(3-fluoro-4-methoxyphenyl)-1-oxoisoindolin-2-yl)methyl)benzamide] | 11.8 | 17.3 | 19.6 | 21.2 |
| Nc1ccccc1NC(=O)CCCCCN1Cc2c(cccc2-c2ccccc2)C1=O [Example 37, N-(2-aminophenyl)-6-(1-oxo-4-phenylisoindolin-2-yl)hexanamide] | 1.6 | 2.6 | 6.8 | 12.5 |
| COc1ccc(-c2cccc3c2CN(Cc2ccc(C(=O)Nc4ccccc4N)cc2)C3=O)cc1 [Example 15, N-(2-aminophenyl)-4-((4-(4-methoxyphenyl)-1-oxoisoindolin-2-yl)methyl)benzamide] | 7.4 | 10.4 | 12 | 14 |
